Data: paper PMC6237173, “Synthesis of novel 6,7-dimethoxy-4-anilinoquinolines as potent c-Met inhibitors” (Journal of Enzyme Inhibition and Medicinal Chemistry, 2018)

Assays:
[1] = test system: MKN-45 (human gastric cancer) cell line; test: Cell proliferation assay (MTT), MKN-45; format: cell-based; details: 48 h exposure, n = 3 (mean ± SD), read-out: Proliferative inhibition IC50, MKN-45
Description: (§1) The anti-proliferative activities of the prepared compounds (12a-12s) were evaluated against A549, MCF-7 and MKN-45 cell lines by MTT assay in vitro. Briefly, tumour cells were cultured to log phase in RPMI 1640 medium supplemented with 10% foetal bovine serum (FBS). After diluting to 2 × 10^4 cells mL^−1 with the complete medium, 100 µL of the obtained cell suspension was added to each well of 96-well culture plates. Subsequently, incubation was performed at 37 °C in 5% CO2 for 24 h before the anti-proliferative assessment. Tested samples at pre-set concentrations were added to 6 wells with cabozantinib as a positive reference. After 48 h exposure period, 40 µL of PBS containing 2.5 mg mL^−1 of MTT was added to each well. Four hours later, 100 µL extraction solution (10% SDS-5% isobutyl alcohol-0.010M HCl) was added. After an overnight incubation at 37°C, the absorbance was measured at a wavelength of 570 nm with an ELISA microplate reader. All compounds were tested three times in each tumour cell lines. The IC50 values were the averages of three determinations and calculated by concentration-response curve fitting method.
(§2) All the synthesised compounds […] were evaluated for their antiproliferation activities against A549 (human lung cancer), MCF-7 (human breast cancer) and MKN-45 (human gastric cancer) cell lines by MTT assay, using cabozantinib as the positive control.

[2] = test system: A549 (human lung cancer) cell line; test: Cell proliferation assay (MTT), A549; format: cell-based; details: 48 h exposure, n = 3 (mean ± SD), read-out: Proliferative inhibition IC50, A549
Description: as §1, §2

[3] = target: T1, c-Met kinase (Homo sapiens, UniProt P08581); test: c-Met inhibition assay (Caliper motility shift assay); format: biochemical; details: for c-Met inhibition % Inhibition (10 μΜ): 10 μΜ compound; for c-Met inhibition % Inhibition (10 μΜ) / IC50: n = 3 (mean ± SD); for c-Met inhibitory activity in words: SAR statement, ortho-substituted compounds; for fold lower c-Met activity than compound 12c: versus 12c
T1 construct: purchased Carna
T1 sequence (P08581 25-1390): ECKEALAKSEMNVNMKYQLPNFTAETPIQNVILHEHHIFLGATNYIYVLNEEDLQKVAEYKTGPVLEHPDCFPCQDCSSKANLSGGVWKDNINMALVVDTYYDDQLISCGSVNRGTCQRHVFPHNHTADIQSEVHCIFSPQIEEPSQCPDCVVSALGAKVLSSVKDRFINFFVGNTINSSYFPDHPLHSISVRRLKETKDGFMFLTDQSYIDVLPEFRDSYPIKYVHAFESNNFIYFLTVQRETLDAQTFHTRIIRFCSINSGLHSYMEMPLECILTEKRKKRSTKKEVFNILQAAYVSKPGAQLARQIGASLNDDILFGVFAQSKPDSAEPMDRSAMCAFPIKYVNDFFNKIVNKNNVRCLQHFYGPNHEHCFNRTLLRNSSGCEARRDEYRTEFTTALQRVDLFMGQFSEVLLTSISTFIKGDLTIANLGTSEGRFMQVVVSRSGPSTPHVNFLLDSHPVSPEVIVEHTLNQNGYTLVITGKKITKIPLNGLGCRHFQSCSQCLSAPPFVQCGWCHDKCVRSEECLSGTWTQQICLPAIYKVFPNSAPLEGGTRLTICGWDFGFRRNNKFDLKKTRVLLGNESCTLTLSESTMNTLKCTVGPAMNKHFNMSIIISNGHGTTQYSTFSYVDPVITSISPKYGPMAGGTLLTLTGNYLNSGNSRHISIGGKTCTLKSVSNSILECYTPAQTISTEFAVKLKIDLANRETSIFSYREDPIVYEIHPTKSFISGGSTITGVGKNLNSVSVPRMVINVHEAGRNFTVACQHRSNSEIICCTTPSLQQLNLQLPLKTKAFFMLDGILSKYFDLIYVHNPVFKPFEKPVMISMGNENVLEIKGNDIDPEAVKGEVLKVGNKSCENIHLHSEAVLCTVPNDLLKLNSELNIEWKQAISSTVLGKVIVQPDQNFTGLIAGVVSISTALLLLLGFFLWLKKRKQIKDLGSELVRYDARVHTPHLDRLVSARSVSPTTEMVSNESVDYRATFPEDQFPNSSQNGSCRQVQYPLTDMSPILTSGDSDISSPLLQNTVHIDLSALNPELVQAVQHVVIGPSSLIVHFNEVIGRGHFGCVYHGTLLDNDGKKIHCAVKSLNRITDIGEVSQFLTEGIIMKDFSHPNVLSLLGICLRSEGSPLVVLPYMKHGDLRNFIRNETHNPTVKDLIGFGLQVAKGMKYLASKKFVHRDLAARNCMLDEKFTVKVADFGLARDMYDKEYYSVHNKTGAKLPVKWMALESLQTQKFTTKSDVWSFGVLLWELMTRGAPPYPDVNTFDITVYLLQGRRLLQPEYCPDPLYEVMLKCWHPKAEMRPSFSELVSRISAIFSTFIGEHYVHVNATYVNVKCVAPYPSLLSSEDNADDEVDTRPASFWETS
Description: A Caliper motility shift assay was applied to test the potency of synthesised compounds against c-Met kinase. Briefly, the compounds were dissolved in DMSO (Sigma) at 0.5 mM concentration, and then were diluted 50× to the final desired highest inhibitor concentration (10 μM) in reaction by DMSO. For all compounds, 100 μL of the diluted compound solution in tubes was transferred to a well on a 96-well plate (Corning) and was serially diluted 10× by transferring 10 μL dilution to 90 μL DMSO in the next well. 100 μL DMSO was added to two empty wells in the same 96-well plate for no compound control and no enzyme control. The plate was marked as source plate. 10 μL of compound solution from source plate was transferred to a new 96-well plate as the intermediate plate. […] After that, 5 μL solution from each well of the intermediate plate was transferred to a 384-well plate (Corning) as the assay plate in duplicates.c-Met kinase (Carna) was added in 1× kinase base buffer to prepare 2.5× enzyme solution, and FAM-labled peptide (GL Biochem) and ATP (Sigma) were added in 1× kinase base buffer to prepare 2.5× peptide solution. 10 μL of 2.5× enzyme solution was added to each well of the 384-well assay plate that already contained 5 μL of compound in 10% DMSO, and then incubated at room temperature for 10 min. […] The data were collected on Caliper and the conversion data were copied from Caliper program.
IC50 values were calculated from three independent experiments by fitting the data in XLfit with the following equation: Y = Bottom + (Top-Bottom)/(1 + (IC50/X)^HillSlope).

[4] = test system: MCF-7 (human breast cancer) cell line; test: Cell proliferation assay (MTT), MCF-7; format: cell-based; details: MCF7, 48 h exposure, n = 3 (mean ± SD), read-out: Proliferative inhibition IC50, MCF-7
Description: as §1, §2

Compound | IC50 [1] | IC50 [2] | c-Met inhibition % Inhibition (10 μΜ) [3] | c-Met inhibitory activity in words [3] | IC50 [4] | melting point | IC50 [3] | fold more potent c-Met activity than compound 12b ([3]; ratio of c-Met IC50 values, versus 12b) | fold lower c-Met activity than compound 12c ([3]; ratio of c-Met IC50 values)
COc1cc2nccc(Nc3ccc4nc(-c5cc(F)ccc5Br)[nH]c4c3)c2cc1OC [Compound 12s, N-(2–(2-bromo-5-fluorophenyl)-1H-benzo[d]imidazol-6-yl)-6,7-dimethoxyquinolin-4-amine] | > 100 µM | > 100 µM | 23.0 ± 1.1% | loss of activity | 92.7 ± 5.3 µM | 284 to 286 °C | – | – | –
COc1cc2nccc(Nc3ccc4nc(-c5ccccc5I)[nH]c4c3)c2cc1OC [Compound 12h, N-(2–(2-iodophenyl)-1H-benzo[d]imidazol-6-yl)-6,7-dimethoxyquinolin-4-amine] | > 100 µM | 92.4 ± 5.1 µM | 21.6 ± 2.5% | – | > 100 µM | 207 to 209 °C | – | – | –
COc1cc2nccc(Nc3ccc4nc(-c5ccccc5C)[nH]c4c3)c2cc1OC [Compound 12j, 6,7-Dimethoxy-N-(2-(o-tolyl)-1H-benzo[d]imidazol-6-yl)quinolin-4-amine] | > 100 µM | > 100 µM | 23.0 ± 0.4% | – | > 100 µM | 174 to 175 °C | – | – | –
COc1cc2nccc(Nc3ccc4nc(-c5cccc(F)c5)[nH]c4c3)c2cc1OC [Compound 12b, N-(2–(3-fluorophenyl)-1H-benzo[d]imidazol-6-yl)-6,7-dimethoxyquinolin-4-amine] | 57.5 ± 1.9 µM | 45 ± 3.3 µM | 62.8 ± 1.2% | – | 48.6 ± 5.2 µM | 286 to 288 °C | 1.2 ± 0.4 µM | – | –
COc1cc2nccc(Nc3ccc4nc(-c5cccc(I)c5)[nH]c4c3)c2cc1OC [Compound 12i, N-(2–(3-iodophenyl)-1H-benzo[d]imidazol-6-yl)-6,7-dimethoxyquinolin-4-amine] | 36.1 ± 2.7 µM | 23.8 ± 2 µM | 66.0 ± 0.8% | – | 30.5 ± 1.6 µM | 201 to 203 °C | 0.54 ± 0.13 µM | – | –
COc1cc2nccc(Nc3ccc4nc(-c5ccccc5F)[nH]c4c3)c2cc1OC [Compound 12a, N-(2–(2-fluorophenyl)-1H-benzo[d]imidazol-6-yl)-6,7-dimethoxyquinolin-4-amine] | > 100 µM | > 100 µM | 16.9 ± 3.5% | diminished activity | > 100 µM | 247 to 249 °C | – | – | –
COc1cc2nccc(Oc3ccc(NC(=O)C4(C(=O)Nc5ccc(F)cc5)CC4)cc3)c2cc1OC [cabozantinib, reference compound] | 11.8 ± 1.4 µM | 4.5 ± 0.8 µM | – | – | 7.2 ± 0.5 µM | – | – | – | –
COc1cc2nccc(Nc3ccc4nc(-c5ccc(C)cc5)[nH]c4c3)c2cc1OC [Compound 12l, 6,7-Dimethoxy-N-(2-(p-tolyl)-1H-benzo[d]imidazol-6-yl)quinolin-4-amine] | 31.8 ± 1.4 µM | 27.3 ± 1.6 µM | 69.0 ± 1.2% | – | 24 ± 0.9 µM | 316 to 319 °C | 0.32 ± 0.07 µM | – | –
COc1cc2nccc(Nc3ccc4nc(-c5ccc(F)cc5)[nH]c4c3)c2cc1OC [Compound 12c, N-(2–(4-fluorophenyl)-1H-benzo[d]imidazol-6-yl)-6,7-dimethoxyquinolin-4-amine] | 21 ± 1.8 µM | 15.6 ± 2.5 µM | 89.2 ± 0.3% | – | 11.3 ± 1.6 µM | 312 to 315 °C | 0.11 ± 0.02 µM | 11 fold | –
CCc1ccc(-c2nc3ccc(Nc4ccnc5cc(OC)c(OC)cc45)cc3[nH]2)cc1 [Compound 12m, N-(2–(4-ethylphenyl)-1H-benzo[d]imidazol-6-yl)-6,7-dimethoxyquinolin-4-amine] | 14.9 ± 0.7 µM | 12.5 ± 1.3 µM | 95.0 ± 0.3% | – | 18.4 ± 2.1 µM | 210 to 212 °C | 0.056 ± 0.012 µM | – | –
COc1cc2nccc(Nc3ccc4nc(-c5ccc(Cl)cc5)[nH]c4c3)c2cc1OC [Compound 12f, N-(2–(4-chlorophenyl)-1H-benzo[d]imidazol-6-yl)-6,7-dimethoxyquinolin-4-amine] | 39.5 ± 2.5 µM | 32.4 ± 3.6 µM | 63.8 ± 0.7% | – | 29.2 ± 1.4 µM | 330 to 332 °C | 0.93 ± 0.1 µM | – | about 9 fold
COc1cc2nccc(Nc3ccc4nc(-c5ccc(Cl)c(Cl)c5)[nH]c4c3)c2cc1OC [Compound 12r, N-(2–(3,4-dichlorophenyl)-1H-benzo[d]imidazol-6-yl)-6,7-dimethoxyquinolin-4-amine] | > 100 µM | 83.6 ± 4 µM | 55.4 ± 2.9% | – | 79.2 ± 1.7 µM | 336 to 338 °C | 5.3 ± 1.6 µM | – | –
COc1cc2nccc(Nc3ccc4nc(-c5cccc(Cl)c5)[nH]c4c3)c2cc1OC [Compound 12e, N-(2–(3-chlorophenyl)-1H-benzo[d]imidazol-6-yl)-6,7-dimethoxyquinolin-4-amine] | 85.7 ± 3.7 µM | 53.8 ± 5 µM | 54.5 ± 6.9% | – | 63.5 ± 4.8 µM | 250 to 252 °C | 4.8 ± 0.5 µM | – | –
COc1cc2nccc(Nc3ccc4nc(-c5c(Cl)cccc5Cl)[nH]c4c3)c2cc1OC [Compound 12q, N-(2–(2,6-dichlorophenyl)-1H-benzo[d]imidazol-6-yl)-6,7-dimethoxyquinolin-4-amine] | > 100 µM | > 100 µM | 37.0 ± 4.0% | loss of activity | > 100 µM | 254 to 257 °C | – | – | –
COc1cc2nccc(Nc3ccc4nc(-c5ccccc5Cl)[nH]c4c3)c2cc1OC [Compound 12d, N-(2–(2-chlorophenyl)-1H-benzo[d]imidazol-6-yl)-6,7-dimethoxyquinolin-4-amine] | > 100 µM | > 100 µM | 17.4 ± 3.7% | – | > 100 µM | 287 to 290 °C | – | – | –
COc1cc2nccc(Nc3ccc4nc(-c5ccc(C(C)(C)C)cc5)[nH]c4c3)c2cc1OC [Compound 12n, N-(2–(4-(tert-butyl)phenyl)-1H-benzo[d]imidazol-6-yl)-6,7-dimethoxyquinolin-4-amine] | 13.4 ± 0.5 µM | 7.3 ± 1 µM | 97.1 ± 3.5% | – | 6.1 ± 0.6 µM | 257 to 259 °C | 0.03 ± 0.008 µM | – | –
COc1cc2nccc(Nc3ccc4nc(-c5cccc(C)c5)[nH]c4c3)c2cc1OC [Compound 12k, 6,7-Dimethoxy-N-(2-(m-tolyl)-1H-benzo[d]imidazol-6-yl)quinolin-4-amine] | 87.2 ± 6.7 µM | 72.6 ± 6.5 µM | 52.7 ± 1.6% | – | 78.3 ± 3.5 µM | 339 to 342 °C | 8.5 ± 2 µM | – | –
COc1cc2nccc(Nc3ccc4nc(-c5ccc(Br)cc5)[nH]c4c3)c2cc1OC [Compound 12g, N-(2–(4-bromophenyl)-1H-benzo[d]imidazol-6-yl)-6,7-dimethoxyquinolin-4-amine] | 55 ± 3.4 µM | 38.5 ± 2.4 µM | 54.2 ± 0.1% | – | 46.3 ± 3.7 µM | 280 to 282 °C | 5.5 ± 0.9 µM | – | about 50 fold
